Where a name gives a salt, the structure may show the parent alone.
Experiment: Solubility of PDE5 inhibitors in formulation carriers and co-solvents
Conditions: for solubility in water: result in words
From the text: In the absence of ethanol an alternative preservative could be used, though methyl parabens and potassium sorbate precipitated out of solution.
Suitable sweeteners were sucralose (0.05%) and suitable flavourings were strawberry flavour 501094 (0.5%) and orange juice flavour 506304 (0.5%).
Cremophor EL (macrogol glycerol ricinoleate Ph Eur) was identified as a component that was able to maintain menthol, peppermint oil, aniseed and lemon oil in solution. These flavours were firstly mixed at 10% w/w with Cremophor EL, and the resultant combination then mixed with water (10% w/w in purified water). […] Note that vanillin also degraded in Cremophor EL, rendering it unusable. […] The action of Cremophor EL here is that of a water-miscible oil-based solvent. Sildenafil and vardenafil remained in solution at a concentration of at least 60 mg/ml and 30 mg/ml, respectively, in the presence of 10% Cremophor EL.

[1] = Miglyol 810 (medium-chain triglycerides Ph Eur), with or without ethanol

Row | SMILES | solubility in Miglyol 810 [1] | solubility in other potential solvents e.g. PEG (PEG, even using ethanol as a co-solvent) | solubility in water (water) | solubility in Miglyol 810 | solubility (water) [mg/mL]
1 | CN1CC(=O)N2[C@H](c3ccc4c(c3)OCO4)c3[nH]c4ccccc4c3C[C@@H]2C1=O [Tadalafil (base), Tadalafil] | insoluble | insoluble | insoluble |  | 
2 | CCCc1nn(C)c2c(=O)[nH]c(-c3cc(S(=O)(=O)N4CCN(C)CC4)ccc3OCC)nc12 [sildenafil (base), sildenafil] | Neither sildenafil (base) nor sildenafil citrate were found to be soluble |  | Neither sildenafil (base) nor sildenafil citrate were found to be soluble |  | 
3 | CCCc1nc(C)c2c(=O)[nH]c(-c3cc(S(=O)(=O)N4CCN(CC)CC4)ccc3OCC)nn12 [Vardenafil (hydrochloride trihydrate), vardenafil hydrochloride trihydrate] |  |  |  | insoluble | ≥ 50

— US20150005307A1, “Drug Delivery Technology” (LondonPharma Ltd., priority 2011, published 2015)
